The subject of one series is plasma testosterone. The note with it: dog, in vivo, sc. Here is the method:
The peptide of Example 3 was formulated in a polymeric PLGA implant in the form of rods which were about 1 cm long and 1 mm in diameter. These implants contained a loading of either 20 or 25% of the peptide (an amount of 7 or 10 mg), and were inserted subcutaneously into in male Beagle dogs which weighed between 10 and 12 kg.

Series [1] deals with serum growth hormone and cortisol. As to the kind of experiment: Oral capsule in healthy subjects, serum growth hormone and cortisol. The series is classed as in vivo, human. Conditions: 20 mg capsule, 5 healthy subjects. On the procedure: A capsule containing 20 mg of the peptide of Example 18 was orally administered to 5 healthy subjects (3 men and 2 women, ages 30 to 66) and serum growth hormone and cortisol levels were measured at various times after administration.

Square brackets hold non-standard residues; d marks the D form. Peptide text beside a SMILES is read from it. dTrp(2-Me) = Cc1[nH]c2ccccc2c1C[C@@H](N)C(=O)O; Trp(2-Me) = Cc1[nH]c2ccccc2c1C[C@H](N)C(=O)O; GABA = NCCCC(=O)O

Turning to `CCNC(=O)[C@@H]1CCCN1C(=O)[C@H](CCCNC(=N)N)NC(=O)[C@H](CC(C)C)NC(=O)[C@@H](Cc1c(C)[nH]c2ccccc12)NC(=O)[C@H](Cc1ccc(O)cc1)NC(=O)[C@H](CO)NC(=O)[C@H](Cc1c[nH]c2ccccc12)NC(=O)[C@H](Cc1c[nH]cn1)NC(=O)[C@@H]1CCC(=O)N1` [Example 3, Pyro-Glu-His-Trp-Ser-Tyr-D-2-alkyl-Trp-Leu-Arg-Pro-NHCH2 CH3], the clinical side effects entry with plasma testosterone is listed as “No clinical side effects were observed”.
Take `Cc1[nH]c2ccccc2c1C[C@H](NC(=O)[C@@H](Cc1c(C)[nH]c2ccccc12)NC(=O)[C@@H](Cc1c(C)[nH]c2ccccc12)NC(=O)CCCN)C(=O)N[C@@H](CCCCN)C(N)=O` [Example 18, GAB-D-2-Mrp-D-2-Mrp-2-Mrp-Lys-NH2] (H-[GABA][dTrp(2-Me)][dTrp(2-Me)][Trp(2-Me)]K-NH2): the “cortisol levels” value in series [1] is listed as “without cortisol stimulation”.

The record behind these values is patent US5955421A, “Peptides containing D-2-alkyl-Tryptophan” (priority 1990, dated 1999).
